From patent US20060009478A1, “Methods for the treatment of back pain” (priority 2003, published 2006)

Test system: patients with moderate to severe chronic low back pain
Test: AE days and average AE days of opioid associated AEs, low back pain study
Settings: ITT population
[1] = (total days with AE)/(days on study drug)
[2] = AE stop date − AE start date + 1

For `COc1ccc2c3c1O[C@H]1C(=O)CC[C@@]4(O)[C@@H](C2)N(C)CC[C@]314` [OXY QID, oxycodone], the “Average AE day for constipation, maximum” value [1] was “(1.13)”, the “Average AE day for constipation, mean” value [1] was 0.24 and the “Average AE day for constipation, median” value [1] was 0.05. For the same compound, the “Average AE day for constipation, minimum” value [1] was 0.00, the “Average AE day for dizziness, maximum” value [1] was 1.73 and the “Average AE day for dizziness, mean (SD)” value [1] was 0.14 (0.281). For the same compound, the “Average AE day for dizziness, median” value [1] was 0.01, the “Average AE day for dizziness, minimum” value [1] was 0.00 and the “Average AE day for nausea, maximum” value [1] was 2.00. For the same compound, the “Average AE day for nausea, mean (SD)” value [1] was 0.14 (0.266), the “Average AE day for nausea, median” value [1] was 0.03 and the “Average AE day for nausea, minimum” value [1] was 0.00. The “Average AE day for pruritus, maximum” value [1] was 2.00, the “Average AE day for pruritus, mean (SD)” value [1] was 0.23 (0.355) and the “Average AE day for pruritus, median” value [1] was 0.03. The “Average AE day for pruritus, minimum” value [1] was 0.00, the “Average AE day for somnolence, maximum” value [1] was 2.00 and the “Average AE day for somnolence, mean (SD)” value [1] was 0.31 (0.392). The “Average AE day for somnolence, median” value [1] was 0.11, the “Average AE day for somnolence, minimum” value [1] was 0.00 and the “Average AE day for vomiting, maximum” value [1] was 1.00. For the same compound, the “Average AE day for vomiting, mean (SD)” value [1] was 0.02 (0.087), the “Average AE day for vomiting, median” value [1] was 0.00 and the “Average AE day for vomiting, minimum” value [1] was 0.00. For the same compound, the “AE day for constipation, maximum” value [2] was 114.00, the “AE day for constipation, mean (SD)” value [2] was 17.59 (27.733) and the “AE day for constipation, median” value [2] was 3.00. For the same compound, the “AE day for constipation, minimum” value [2] was 0.00, the “AE day for dizziness, maximum” value [2] was 114.00 and the “AE day for dizziness, mean (SD)” value [2] was 8.59 (18.871). The “AE day for dizziness, median” value [2] was 1.00, the “AE day for dizziness, minimum” value [2] was 0.00 and the “AE day for nausea, maximum” value [2] was 118.00. The “AE day for nausea, mean (SD)” value [2] was 8.16 (16.511), the “AE day for nausea, median” value [2] was 2.00 and the “AE day for nausea, minimum” value [2] was 0.00. The “AE day for pruritus, maximum” value [2] was 124.00, the “AE day for pruritus, mean (SD)” value [2] was 15.92 (28.817) and the “AE day for pruritus, median” value [2] was 2.00. For the same compound, the “AE day for pruritus, minimum” value [2] was 0.00, the “AE day for somnolence, maximum” value [2] was 123.00 and the “AE day for somnolence, mean (SD)” value [2] was 21.53 (32.137). The “AE day for somnolence, median” value [2] was 6.00, the “AE day for somnolence, minimum” value [2] was 0.00 and the “AE day for vomiting, maximum” value [2] was 18.00. For the same compound, the “AE day for vomiting, mean (SD)” value [2] was 1.09 (2.839), the “AE day for vomiting, median” value [2] was 0.00 and the “AE day for vomiting, minimum” value [2] was 0.00.
